The target of experiment [1] is PDE10A enzyme (Homo sapiens (Human), UniProt Q9Y233). Put plainly: PDE10A inhibition assay. In kind it is biochemical. The following applies: tritium labeled cAMP 5 nM. As to the method:
Active PDE10A enzyme is prepared in a number of ways for use in PDE assays (Loughney, K. et al. Gene 1999, 234, 109-117; Fujishige, K. et al. Eur J Biochem. 1999, 266, 1118-1127 and Soderling, S. et al. Proc. Natl. Acad. Sci. 1999, 96, 7071-7076). PDE10A can be expressed as full-length proteins or as truncated proteins, as long as they express the catalytic domain. PDE10A can be prepared in different cell types, for example insect cells or E. coli. An example of a method to obtain catalytically active PDE10A is as follows: The catalytic domain of human PDE10A (amino acids 440-779 from the sequence with accession number NP 006652) is amplified from total human brain total RNA by standard RT-PCR and is cloned into the BamH1 and Xho1 sites of the pET28a vector (Novagen). Expression in coli is performed according to standard protocols. Briefly, the expression plasmids are transformed into the BL21(DE3) E. coli strain, and 50 mL cultures inoculated with the cells allowed to grow to an OD600 of 0.4-0.6 before protein expression is induced with 0.5 mM IPTG. Following induction, the cells are incubated overnight at room temperature, after which the cells are collected by centrifugation. Cells expressing PDE10A are resuspended in 12 mL (50 mM TRIS-HCl-pH8.0, 1 mM MgCl2 and protease inhibitors). The cells are lysed by sonication, and after all cells are lysed, TritonX100 is added according to Novagen protocols.
A PDE10A assay may for example, be performed as follows: The assay is performed in 60 uL samples containing a fixed amount of the relevant PDE enzyme (sufficient to convert 20-25% of the cyclic nucleotide substrate), a buffer (50 mM HEPES7.6; 10 mM MgCl2; 0.02% Tween20), 0.1 mg/ml BSA, 225 pCi of ^3H-labelled cyclic nucleotide substrate, tritium labeled cAMP to a final concentration of 5 nM and varying amounts of inhibitors. Reactions are initiated by addition of the cyclic nucleotide substrate, and reactions are allowed to proceed for one hr at room temperature before being terminated through mixing with 15 uL 8 mg/mL yttrium silicate SPA beads (Amersham). The beads are allowed to settle for one hr in the dark before the plates are counted in a Wallac 1450 Microbeta counter. The measured signal can be converted to activity relative to an uninhibited control (100%) and IC50 values can be calculated using the XIfit extension to EXCEL.

Experiment [2] deals with rats. The following applies: cited from earlier work.
Experiment [3] has as its system rats. The following applies: cited from earlier work. This is another data set of the same source.
Experiment [4] deals with rats. The following applies: cited from earlier work. This is another data set of the same source.

SMILES strings stand for the structures.

The term IC50 denotes the midpoint of a concentration-inhibition curve. Low values mean greater potency, high ones weaker potency.

Chain of PDE10A enzyme (Q9Y233 716-1055): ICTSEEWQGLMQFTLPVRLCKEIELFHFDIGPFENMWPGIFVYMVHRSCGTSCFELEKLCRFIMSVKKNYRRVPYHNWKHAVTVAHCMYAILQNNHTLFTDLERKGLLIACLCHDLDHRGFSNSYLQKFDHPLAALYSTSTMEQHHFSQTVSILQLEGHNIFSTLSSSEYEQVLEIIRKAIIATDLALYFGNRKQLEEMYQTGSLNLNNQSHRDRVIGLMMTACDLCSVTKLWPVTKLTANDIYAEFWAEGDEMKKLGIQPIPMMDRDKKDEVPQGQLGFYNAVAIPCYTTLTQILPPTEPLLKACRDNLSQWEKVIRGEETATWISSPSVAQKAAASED

The molecule `COc1cc(CCc2nc3c(OC)ccc(C)n3n2)nc2ccccc12` [4-Methoxy-2-[2-(8-methoxy-5-methyl-[1,2,4]triazolo[1,5-a]pyridin-2-yl)-ethyl]-quinoline] had an IC50 in experiment [1] of 35 nM.

In the case of `Cc1cc(CCc2nc3cccc(C)n3n2)nc2ccccc12` [4-Methyl-2-[2-(5-methyl-[1,2,4]triazolo[1,5-a]pyridin-2-yl)-ethyl]-quinoline], the IC50 in experiment [1] turned out to be 140 nM.

With `Cc1ncc(C)n2nc(CCc3ccc4c(Cl)cc(Cl)cc4n3)nc12` [5,7-Dichloro-2-[2-(5,8-dimethyl-[1,2,4]triazolo[1,5-a]pyrazin-2-yl)-ethyl]-quinoline], in experiment [1], the IC50 was found to be 39 nM.

Turning to `Cc1ncc(C)n2nc(CCc3ccc4cc(Cl)cc(F)c4n3)nc12` [6-Chloro-2-[2-(5,8-dimethyl-[1,2,4]triazolo[1,5-a]pyrazin-2-yl)-ethyl]-8-fluoro-quinoline], the IC50 in experiment [1] turned out to be 240 nM.

Consider `Cc1ncc(C)n2nc(CCc3ccc4cc(Cl)ccc4n3)nc12` [6-Chloro-2-[2-(5,8-dimethyl-[1,2,4]triazolo[1,5-a]pyrazin-2-yl)-ethyl]-quinoline], for which the IC50 in experiment [1] was found to be 42 nM.

In turn, `COc1ccc(C)n2nc(CCc3ccc4cc(F)ccc4n3)nc12` [6-Fluoro-2-[2-(8-methoxy-5-methyl-[1,2,4]triazolo[1,5-a]pyridin-2-yl)-ethyl]-quinoline] yielded an IC50 in experiment [1] of 34 nM. This IC50 and that of the molecule before are within 1.5-fold of each other.

`Cc1ncc(C)n2nc(CCc3ccc4cc5c(cc4n3)OC(F)(F)O5)nc12` [6-[2-(5,8-Dimethyl-[1,2,4]triazolo[1,5-a]pyrazin-2-yl)-ethyl]-2,2-difluoro-[1,3]dioxolo[4,5-g]quinoline] showed an IC50 in experiment [1] of 520 nM.

`Cc1ncc(C)n2nc(CCc3ccc4cc5c(cc4n3)OCO5)nc12` [6-[2-(5,8-Dimethyl-[1,2,4]triazolo[1,5-a]pyrazin-2-yl)-ethyl]-[1,3]dioxolo[4,5-g]quinoline] yielded an IC50 in experiment [1] of 13 nM.

For `Cc1ncc(C)n2nc(CCc3ccc4cc(C#N)c(Cl)cc4n3)nc12` [7-Chloro-2-[2-(5,8-dimethyl-[1,2,4]triazolo[1,5-a]pyrazin-2-yl)-ethyl]-quinoline-6-carbonitrile], in experiment [1], the IC50 is 59 nM.

For the molecule `Cc1ncc(C)n2nc(CCc3ccc4ccc(Cl)cc4n3)nc12` [7-Chloro-2-[2-(5,8-dimethyl-[1,2,4]triazolo[1,5-a]pyrazin-2-yl)-ethyl]-quinoline], the IC50 in experiment [1] stood at 52 nM.

`Cc1ncc(C)n2nc(CCc3ccc4cc5c(cc4n3)OCCO5)nc12` [7-[2-(5,8-Dimethyl-[1,2,4]triazolo[1,5-a]pyrazin-2-yl)-ethyl]-2,3-dihydro-[1,4]dioxino[2,3-g]quinoline]: in experiment [1], the midpoint of inhibition, the IC50, lay at 4 nM.

As for `Cc1cc(Cl)c2nc(CCc3nc4c(C)ncc(C)n4n3)ccc2c1` [8-Chloro-2-[2-(5,8-dimethyl-[1,2,4]triazolo[1,5-a]pyrazin-2-yl)-ethyl]-6-methyl-quinoline], 290 nM corresponded to half-maximal inhibition in experiment [1] (IC50).

`COc1ccc(C)n2nc(CCc3ccc4cccc(F)c4n3)nc12` [8-Fluoro-2-[2-(8-methoxy-5-methyl-[1,2,4]triazolo[1,5-a]pyridin-2-yl)-ethyl]-quinoline] had an IC50 in experiment [1] of 150 nM.

Turning to `COc1ccc(Cc2nccc3cc(OC)c(OC)cc23)cc1OC` [Papaverine, papaverine], in experiment [2], the “reduction of amphetamine induced hyperactivity” value is “insignificant”. The “catalepsy on its own” value in experiment [3] (papaverine alone) is “did not cause catalepsy on its own”. Besides, the “cataleptic effect of the D2 receptor antagonist haloperidol” value in experiment [3] (together with haloperidol) was “potentiated the cataleptic effect”. Besides, the “hyperactivity induced by PCP” value in experiment [4] is listed as “reduced hyperactivity”.

The values above are taken from patent US9216986B1, “Quinoline derivatives as PDE10A enzyme inhibitors” (H. Lundbeck A/S, priority 2011, dated 2015).
